What was measured:
[1] = system: rat hippocampal slices; experiment: Oxygen and glucose deprivation (15 minutes OGD, 2 hours reoxygenation) in hippocampal slices, MTT cell viability; type: cell-based
Description: Male Spague Dawley strain rats (250-325 g) were used. After anaesthesia by means of an intraperitoneal injection of 60 mg/Kg sodium pentobarbital (Euta-Lender®), they were decapitated with a guillotine and the brain was extracted after a craniotomy. The brain was immediately submersed in a dissection solution, a cold (4° C.) modified Krebs-Henseleit solution at pH 7.4, the composition of which is: 120 mM NaCl, 2 mM KCl, 0.5 mM CaCl2, 26 mM NaHCO3, 10 mM MgSO4, 1.18 mM KH2PO4, 11 mM glucose and 200 mM sucrose, bubbled with 95% O2-5% CO2. The hippocampi were isolated, embedded in 2% low melting point agarose (Sigma-Aldrich), and cut into 350 μm transverse slices in a vibratome (Leica VT1000S).
After the cutting in the vibratome, the slices were transferred to a vial with sucrose-free dissection Krebs solution, bubbled with 95% O2-5% CO2 for 60 minutes (equilibrium period).
After the equilibrating period, the medium was removed and an oxygenated solution (normal Krebs solution (120 mM NaCl, 2 mM KCl, 2 mM CaCl2, 26 mM NaHCO3, 1.19 mM MgSO4, 1.18 mM KH2PO4 and 11 mM glucose), bubbled with 5% CO2 and 95% O2 for 30 minutes (preincubation period), was introduced. The baseline slices were maintained in this oxygenated solution throughout the entire experiment. To induce OGD, the oxygenated solution was replaced with another one which lacked glucose and was bubbled with a mixture of gases of 5% CO2 and 95% N2 (anoxic solution). The slices were in a bath at 37° C. After inducing OGD, the anoxic medium was replaced with another one which contained the oxygenated solution (reoxygenation period).
To evaluate the effect of the compounds, they were incubated for the 30 minutes of the preincubation and throughout the OGD and during the reoxygenation. Two OGD-reoxygenation protocols were used: (i) 1 hour of OGD and 2 hours of reoxygenation and (ii) 15 minutes of OGD followed by 2 hours of reoxygenation.
When the OGD-reoxygenation protocol (ii): 15 minutes of OGD followed by 2 hours of reoxygenation was used, the slices were incubated with increasing concentrations of compound Ic (0.3 and 1 μM) or with increasing concentrations of compound Ib (1 and 3 μM). In the same study these two compounds of the invention were compared with N-acetylcysteine (NAC) at 10 mM. The baseline (slices in the absence of compound Ic or Ib and of OGD) and the control (slices in the absence of compound Ic or Ib and with OGD) were also included.
For the protocol of 15 minutes of OGD followed by 2 hours of reoxygenation, the cell viability was evaluated by means of the tetrazolium salt MTT, which is internalized in those cells which are viable and are therefore capable of reducing the tetrazolium to formazan which is an insoluble and coloured product which is deposited in the […]. To that end, after the experiment had ended, the hippocampal slices were incubated with MTT at a final concentration of 0.5 mg/mL in a Krebs-HEPES solution (in mM: NaCl, 144; KCl, 5.9; MgCl2, 1.2; CaCl2, 2; HEPES, 10; glucose, 11; at pH 7.3) at 37° C. After 3 hours, the medium was removed and the formazan precipitated in the solution was dissolved in dimethylsulfoxide. Then, the absorbance was measured in a plate reader (Labsystems iEMS Reader MF), at 500 nm. The data were represented taking the result of the baseline slices, i.e., those not subjected to OGD, as 100% viability.

[2] = system: mice (photothrombotic stroke model); experiment: Experimental photothrombotic stroke model, cortical infarction volume; type: in vivo, mouse; conditions: 10 mg/kg i.p.
Source text: Neuronal death occurs during brain ischemia or stroke; therefore a medicament with a neuroprotective profile can have a therapeutic potential in patients who have suffered from a cerebral infarction or stroke. To explore if the compounds of formula (I) can offer neuroprotection in vivo, the experimental photothrombotic stroke model was used. In the photothrombosis model a focal cerebral infarction is induced in the area of the cortex illuminated by means of a cold light source in mice previously treated with the Rose Bengal stain; this stain is photosensitive and produces free radicals when it is stimulated with light, causing lesions in the surrounding vascular endothelium, which causes platelet aggregation and the formation of thrombi in the microvessels of the cerebral cortex (Non-invasive induction of focal cerebral ischemia in mice by photothrombosis of cortical microvessels: characterization of inflammatory responses, M. Schroeter et al., J Neurosci Methods. 117(1), 43-49. (2002); Melatonin reduces infarction volume in a photothrombotic stroke model in the wild-type but not cyclooxygenase-1-gene knockout mice, L Y. Zhou et al., J Pineal Res. 41(2), 150-156. (2006)).
Adult male Swiss breed mice from Harlan laboratories (Barcelona), with a weight of about 30 g, were used. Once anaesthetised with isoflurane, the mice were placed in a stereotaxic frame, maintaining their rectal temperature at 37±0.5° C. during the entire procedure. Subsequently, the cranium was exposed by means of a dorsomedial incision in the skin and the periosteum was removed. By means of the use of a micromanipulator, a fibre-optic cable was placed to emit a beam of light of 1.9 mm in diameter and 3000° K, connected to a cold light source (Zeiss KL 1500), in 2.0 mm posterior and 3.0 mm lateral to Bregma on the right side. According to the mouse brain atlas (Franklin and Paxinos, 1986), the sensitive-motor cortex, the putamen caudate and the hippocampus are right below this stereotaxic position. Then, the mice were injected with 1 mg of the Rose Bengal photosensitive probe and the brain was illuminated through the intact cranium for 30 minutes. Finally, the skin was sutured and the animals were left in a cage until their recovery under observation.
The animals were sacrificed by decapitation 72 hours after the ischemia. […]
To quantify the cortical cerebral infarction volume, the sections stained with TTC were scanned on both their rostral and caudal part and by means of the image analysis programme ImageJ 1.41 (National Institutes of Health, Bethesda, Md., USA) the area of the ipsi-, contralateral cortex and the cerebral infarction of each of the sections scanned, both in the caudal and rostral part, was quantified. Subsequently, the cerebral infarction volume was calculated. […]

methyl 2-acetamido-2-deoxy-3-O-(β-D-glucopyranosyluronic acid)-4,6-di-O-sulpho-α-D-glucopyranoside, trisodium salt [compound Ic]
maximum statistically significant protection (cell viability, MTT) ([1]; 1 μM, 15 minutes OGD, 2 hours reoxygenation, baseline 100%, control 67%): 93% | efficacy in comparison with N-acetylcysteine ([1]; Ic 0.3 and 1 μM, Ib 1 and 3 μM vs N-acetylcysteine 10 mM): higher efficacy | cortical infarction volume ([2]; 24 h and 1 h before ischemia and twice a day after, 72 hours, saline 6.1±2.18%, mean and standard deviation): 2.8±1.95% | protection (reduction of cortical infarction volume) ([2]; p<0.001 vs saline): 53%

Source: patent US8785416B2, “Sulphated disaccharides for the treatment of neurodegenerative and/or neurovascular diseases” (Bioiberica, S.A., priority 2009, dated 2014)
